Source: ChEMBL document CHEMBL4715874, “In Vivo Screening of Xanthones from Garcinia oligantha Identified Oliganthin H as a Novel Natural Inhibitor of Convulsions” (J Nat Prod, 2020)
The source made the active and inactive calls. The calls are words filed in the database; no cut-off is given here.

Legend:
[1] = Neurotoxicity in AB zebra fish larvae assessed as decrease in total swimming distance at <= MTC after 6 hrs; type: toxicity, Danio rerio; conditions: zebrafish
[2] = Ratio of MTC for toxicity in AB zebra fish larvae to lowest observed effect concentration for Anticonvulsant activity in AB zebra fish larvae assessed as reduction in PTZ-induced convulsant behavior; set-up: species or system Danio rerio
[3] = Toxicity in AB zebra fish larvae assessed as maximum tolerated concentration after 6 hrs; set-up: species or system Danio rerio; conditions: zebrafish, read-out: MTC
[4] = Neurotoxicity in AB zebra fish larvae at 1.5 uM after 6 hrs; type: toxicity, Danio rerio; conditions: zebrafish
[5] = Toxicity in AB zebra fish larvae assessed as mortality at >= 6.2 uM after 6 hrs relative to control; set-up: species or system Danio rerio; conditions: zebrafish
[6] = organism: Danio rerio; experiment: Anticonvulsant activity in AB zebra fish larvae assessed as reduction in PTZ-induced convulsant behavior by measuring lowest observed effect concentration pretreated for 6 hrs followed by PTZ-stimulation and measured every 5 mins for 1 hr; type: functional; conditions: time 7 hrs
[7] = organism: Danio rerio; experiment: Anticonvulsant activity in AB zebra fish larvae assessed as reduction in PTZ-induced convulsant behavior by measuring swimming distance at 0.7 uM pretreated for 6 hrs followed by PTZ-stimulation and measured every 5 mins for 1 hr; type: functional, organism-based; conditions: time 7.0 hrs
[8] = Toxicity in AB zebra fish larvae assessed as mortality at >= 25 uM after 6 hrs; set-up: species or system Danio rerio; conditions: zebrafish
[9] = Neurotoxicity in AB zebra fish larvae at 25 uM after 6 hrs; type: toxicity, Danio rerio; conditions: zebrafish
[10] = Neurotoxicity in AB zebra fish larvae assessed as increase in total swimming distance at > 12.5 uM after 6 hrs; type: toxicity, Danio rerio; conditions: zebrafish
[11] = organism: Danio rerio; experiment: Anticonvulsant activity in AB zebra fish larvae assessed as reduction in PTZ-induced convulsant behavior by measuring swimming distance at 3.1 to 12.5 uM pretreated for 6 hrs followed by PTZ-stimulation and measured every 5 mins for 1 hr; type: functional, organism-based; conditions: dose 3.1-12.5 µM, time 7.0 hrs

CC(C)=CCC12CC(C(C)(C)O)OC1=C(O)C(=O)c1oc3c4c(cc(O)c3c(=O)c12)OC(C)(C)C=C4 (stereo not given)
Activity [1]: Non-Toxic
Ratio [2]: 1
MNTC at 6 h [3]: 0.7 µM
Activity [4]: Toxic
mortality at 6 h [5]: 100%
Activity [6]: 0.7 µM
Activity [7]: Active

CC(C)=CCC1(CC=C(C)C)C(=O)C(O)=C(O)c2oc3c4c(cc(O)c3c(=O)c21)OC(C)(C)C=C4
Activity [8]: Toxic
Activity [1]: Non-Toxic
Ratio [2]: <1
Activity [9]: Toxic
MNTC at 6 h [3]: 12.5 µM
Activity [6]: >12.5 µM
Activity [10]: Toxic
Activity [11]: inactive
